In PMC10407959 (Journal of medicinal chemistry, 2023):
“Also recorded” adds a separate entry of the source. Read-outs that look alike come from different tables or passages of the source. Marks after values point to notes of the source that are not given here.

How the values were obtained:
[1] = target: CYP2C9 (Homo sapiens, UniProt P11712); details: read-out: CYP2C9 (IC50); ref Wen et al. 5; cited from earlier work
[2] = rat, 3 mg/kg, i.p.; previous data; cited from earlier work
[3] = target: CYP2D6 (Homo sapiens, UniProt P10635); details: read-out: CYP2D6 (IC50); ref Wen et al. 5; cited from earlier work
Sequence of CYP2D6 (P10635 whole entry): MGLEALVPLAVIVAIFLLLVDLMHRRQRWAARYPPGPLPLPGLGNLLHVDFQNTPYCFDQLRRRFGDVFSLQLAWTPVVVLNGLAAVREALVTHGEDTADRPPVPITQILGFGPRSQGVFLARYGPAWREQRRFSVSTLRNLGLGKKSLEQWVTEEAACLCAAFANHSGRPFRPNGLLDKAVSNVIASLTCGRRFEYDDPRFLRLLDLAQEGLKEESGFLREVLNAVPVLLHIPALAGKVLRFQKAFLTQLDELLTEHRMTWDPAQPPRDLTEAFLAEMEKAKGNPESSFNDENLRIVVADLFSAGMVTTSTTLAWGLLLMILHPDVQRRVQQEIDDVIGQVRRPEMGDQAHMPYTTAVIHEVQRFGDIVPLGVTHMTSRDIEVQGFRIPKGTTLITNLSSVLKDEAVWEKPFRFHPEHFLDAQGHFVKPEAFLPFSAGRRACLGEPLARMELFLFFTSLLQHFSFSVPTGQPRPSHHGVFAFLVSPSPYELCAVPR

[4] = target: CYP3A4 (Homo sapiens, UniProt P08684); details: read-out: CYP3A4 (IC50); ref Wen et al. 5; cited from earlier work
Sequence of CYP3A4 (P08684 whole entry): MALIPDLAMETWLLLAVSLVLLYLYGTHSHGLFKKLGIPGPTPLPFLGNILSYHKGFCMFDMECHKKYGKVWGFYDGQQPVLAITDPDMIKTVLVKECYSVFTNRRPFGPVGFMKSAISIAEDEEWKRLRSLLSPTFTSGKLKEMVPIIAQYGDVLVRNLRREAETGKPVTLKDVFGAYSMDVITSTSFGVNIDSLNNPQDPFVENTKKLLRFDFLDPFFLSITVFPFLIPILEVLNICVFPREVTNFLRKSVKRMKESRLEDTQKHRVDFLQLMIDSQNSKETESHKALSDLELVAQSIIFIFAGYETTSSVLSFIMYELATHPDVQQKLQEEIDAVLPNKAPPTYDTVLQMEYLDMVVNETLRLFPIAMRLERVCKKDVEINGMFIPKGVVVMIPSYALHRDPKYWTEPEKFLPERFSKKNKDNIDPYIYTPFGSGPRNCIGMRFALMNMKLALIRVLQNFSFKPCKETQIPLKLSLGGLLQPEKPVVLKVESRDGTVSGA

[5] = target: CYP2C19 (Homo sapiens, UniProt P33261); details: read-out: CYP2C19 (IC50); ref Wen et al. 5; cited from earlier work
Sequence of CYP2C19 (P33261 whole entry): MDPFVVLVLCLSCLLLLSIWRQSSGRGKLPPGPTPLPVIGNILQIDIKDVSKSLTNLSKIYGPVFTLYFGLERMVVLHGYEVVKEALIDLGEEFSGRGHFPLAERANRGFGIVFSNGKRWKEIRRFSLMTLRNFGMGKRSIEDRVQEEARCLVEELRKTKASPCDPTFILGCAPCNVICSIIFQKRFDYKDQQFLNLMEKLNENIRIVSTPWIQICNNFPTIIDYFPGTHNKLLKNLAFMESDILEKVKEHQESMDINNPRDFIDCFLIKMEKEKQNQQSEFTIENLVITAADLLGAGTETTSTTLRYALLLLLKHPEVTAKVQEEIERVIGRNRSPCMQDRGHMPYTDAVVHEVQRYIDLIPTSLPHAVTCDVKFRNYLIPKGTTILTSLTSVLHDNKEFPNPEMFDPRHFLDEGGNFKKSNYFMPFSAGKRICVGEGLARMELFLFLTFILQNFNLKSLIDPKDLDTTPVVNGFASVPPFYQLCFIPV

[6] = target: T1, CYP1A2 (Homo sapiens, UniProt P05177); details: read-out: CYP1A2 (IC50); ref Wen et al. 5; cited from earlier work
T1 sequence (P05177 1-516): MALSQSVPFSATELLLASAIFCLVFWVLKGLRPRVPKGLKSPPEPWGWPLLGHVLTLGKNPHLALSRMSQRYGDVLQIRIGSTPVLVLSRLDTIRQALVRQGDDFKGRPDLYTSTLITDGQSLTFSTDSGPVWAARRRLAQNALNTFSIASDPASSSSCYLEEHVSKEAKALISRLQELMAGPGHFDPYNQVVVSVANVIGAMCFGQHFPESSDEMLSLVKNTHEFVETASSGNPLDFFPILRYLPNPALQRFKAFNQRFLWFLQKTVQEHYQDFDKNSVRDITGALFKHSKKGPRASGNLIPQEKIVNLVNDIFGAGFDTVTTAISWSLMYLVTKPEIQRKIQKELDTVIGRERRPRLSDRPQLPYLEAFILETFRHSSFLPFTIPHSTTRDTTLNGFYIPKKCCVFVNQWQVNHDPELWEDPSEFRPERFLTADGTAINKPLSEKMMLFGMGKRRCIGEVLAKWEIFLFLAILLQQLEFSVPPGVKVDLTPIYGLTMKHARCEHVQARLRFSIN

[7] = target: hERG (Homo sapiens, UniProt Q12809); details: read-out: hERG, IC50; fluorescent dye binding method; ref Wen et al. 5; cited from earlier work
Sequence of hERG (Q12809 whole entry): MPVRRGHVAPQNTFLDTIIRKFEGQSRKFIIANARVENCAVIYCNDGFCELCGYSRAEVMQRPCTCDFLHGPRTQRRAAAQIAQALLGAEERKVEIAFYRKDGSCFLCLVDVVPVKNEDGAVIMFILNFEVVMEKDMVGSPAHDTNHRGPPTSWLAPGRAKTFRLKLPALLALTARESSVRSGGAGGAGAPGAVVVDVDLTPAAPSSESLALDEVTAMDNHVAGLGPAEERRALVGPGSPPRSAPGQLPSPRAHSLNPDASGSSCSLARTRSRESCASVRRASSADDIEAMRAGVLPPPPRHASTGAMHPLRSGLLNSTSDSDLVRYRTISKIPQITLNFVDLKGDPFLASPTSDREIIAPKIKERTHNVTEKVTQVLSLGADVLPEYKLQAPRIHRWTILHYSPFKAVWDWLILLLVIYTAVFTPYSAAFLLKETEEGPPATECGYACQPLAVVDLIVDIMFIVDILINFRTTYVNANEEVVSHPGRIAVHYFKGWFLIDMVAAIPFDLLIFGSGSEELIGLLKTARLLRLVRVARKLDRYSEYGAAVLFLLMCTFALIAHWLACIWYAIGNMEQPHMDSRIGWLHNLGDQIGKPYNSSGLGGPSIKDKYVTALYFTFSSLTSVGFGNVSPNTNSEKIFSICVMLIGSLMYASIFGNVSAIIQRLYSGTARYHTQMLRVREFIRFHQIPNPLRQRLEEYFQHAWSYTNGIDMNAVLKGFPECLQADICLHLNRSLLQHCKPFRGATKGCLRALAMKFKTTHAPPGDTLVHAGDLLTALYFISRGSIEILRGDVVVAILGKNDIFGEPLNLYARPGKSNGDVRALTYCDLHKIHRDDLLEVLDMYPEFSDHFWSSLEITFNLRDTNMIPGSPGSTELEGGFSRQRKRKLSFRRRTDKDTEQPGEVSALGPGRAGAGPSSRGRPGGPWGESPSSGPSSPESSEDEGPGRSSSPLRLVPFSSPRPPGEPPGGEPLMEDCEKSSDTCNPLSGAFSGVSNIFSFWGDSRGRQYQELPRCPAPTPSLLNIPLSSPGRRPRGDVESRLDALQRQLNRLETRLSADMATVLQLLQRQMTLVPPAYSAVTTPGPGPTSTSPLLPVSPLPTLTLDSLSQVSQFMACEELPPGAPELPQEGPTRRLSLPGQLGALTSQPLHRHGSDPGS

[8] = rat (r), ref Wen et al. 5; cited from earlier work
[9] = ref Wen et al. 5; cited from earlier work
[10] = mouse (m), ref Wen et al. 5; cited from earlier work
[11] = pH 7.4, pION method, determined by Jai Research Foundation; ref Wen et al. 5; cited from earlier work
[12] = target: T2, hP2Y14R (Homo sapiens, UniProt Q15391); assay: cell-based
T2 sequence (Q15391 1-338): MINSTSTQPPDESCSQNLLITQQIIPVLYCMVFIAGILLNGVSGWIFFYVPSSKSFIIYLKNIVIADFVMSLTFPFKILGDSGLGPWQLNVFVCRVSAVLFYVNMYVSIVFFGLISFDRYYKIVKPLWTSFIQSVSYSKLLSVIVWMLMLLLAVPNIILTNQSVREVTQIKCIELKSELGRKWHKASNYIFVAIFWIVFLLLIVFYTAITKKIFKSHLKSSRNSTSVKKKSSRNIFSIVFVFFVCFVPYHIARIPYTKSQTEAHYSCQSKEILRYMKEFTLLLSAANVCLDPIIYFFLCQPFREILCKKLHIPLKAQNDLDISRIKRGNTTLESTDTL

[13] = ref Wen et al. 5; cited from earlier work; remark: listed apart in the source
[14] = in mouse; cited from earlier work
[15] = test system: Nonhuman primate (chimpanzee) P2Y14R; details: read-out: IC50 (P2Y14R), ref Belley et al.[15]; cited from earlier work
[16] = test system: protease-mediated mouse model of allergic asthma; assay: protease-mediated mouse model of allergic asthma, BAL fluid cells; details: 10 mg/kg i.p., C57BL/6J mice
[17] = test system: mouse CCI model; assay: mouse model of chronic neuropathic pain; details: for reversal of mechano-allodynia (paw withdrawal threshold): day 7 post-sciatic nerve constriction, adult male mice
[18] = target: T2, hP2Y14R; assay: whole-cell fluorescent competitive binding assay
[19] = pharmacokinetics and tolerability in male Wistar rats
[20] = test system: cardiac ischemia-reperfusion (I/R) injury; assay: cardiac ischemia-reperfusion; assay type: in vivo, mouse; details: 2 mg/kg/day minipump
[21] = male, Wistar, rat, in vivo, ip
[22] = target: T3, mP2Y14R (Mus musculus, UniProt Q9ESG6); assay: whole-cell fluorescent binding assay at mP2Y14R expressed in HEK-293 cells
T3 sequence (Q9ESG6 1-338): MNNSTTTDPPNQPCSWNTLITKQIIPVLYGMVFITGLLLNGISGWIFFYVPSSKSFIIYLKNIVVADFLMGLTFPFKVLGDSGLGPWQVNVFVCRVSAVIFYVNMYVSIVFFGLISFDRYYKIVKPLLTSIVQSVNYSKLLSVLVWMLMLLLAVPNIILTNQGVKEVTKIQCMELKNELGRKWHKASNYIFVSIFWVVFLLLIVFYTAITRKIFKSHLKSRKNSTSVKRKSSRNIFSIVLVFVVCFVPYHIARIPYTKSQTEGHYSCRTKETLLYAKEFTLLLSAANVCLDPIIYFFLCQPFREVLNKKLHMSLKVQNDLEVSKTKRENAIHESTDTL

[23] = target: σ1 receptor (Cavia porcellus, UniProt Q60492); assay: PDSP off-target radioligand binding; details: read-out: Ki, σ1 receptor; NIMH PDSP
Sequence of σ1 receptor (Q60492 whole entry): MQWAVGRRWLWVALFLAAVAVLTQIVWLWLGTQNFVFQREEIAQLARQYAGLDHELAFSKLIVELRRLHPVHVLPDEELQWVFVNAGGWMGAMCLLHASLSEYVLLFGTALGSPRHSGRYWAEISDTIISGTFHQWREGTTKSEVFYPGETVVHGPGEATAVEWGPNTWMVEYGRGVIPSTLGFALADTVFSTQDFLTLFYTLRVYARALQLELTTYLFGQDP

[24] = target: serotonin 5-HT1B (Homo sapiens, UniProt P28222); assay: PDSP off-target radioligand binding; details: read-out: Ki, serotonin 5-HT1B; NIMH PDSP
Sequence of serotonin 5-HT1B (P28222 whole entry): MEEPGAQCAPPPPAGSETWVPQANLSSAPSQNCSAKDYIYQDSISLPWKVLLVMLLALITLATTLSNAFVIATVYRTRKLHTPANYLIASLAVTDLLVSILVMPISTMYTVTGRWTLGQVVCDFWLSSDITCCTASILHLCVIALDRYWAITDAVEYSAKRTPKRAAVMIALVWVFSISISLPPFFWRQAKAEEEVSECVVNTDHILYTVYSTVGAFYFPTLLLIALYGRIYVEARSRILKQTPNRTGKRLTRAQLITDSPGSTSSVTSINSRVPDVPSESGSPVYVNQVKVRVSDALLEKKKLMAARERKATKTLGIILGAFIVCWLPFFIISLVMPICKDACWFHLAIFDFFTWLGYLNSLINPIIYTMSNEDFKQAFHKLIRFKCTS

[25] = HPLC-based Log D7.4; assay type: physicochemical; details: from HPLC retention factors, calibration with five standards
[26] = target: 5-HT5A (Homo sapiens, UniProt P47898); assay: PDSP off-target radioligand binding; details: read-out: Ki, 5-HT5A; NIMH PDSP
Sequence of 5-HT5A (P47898 whole entry, species assumed): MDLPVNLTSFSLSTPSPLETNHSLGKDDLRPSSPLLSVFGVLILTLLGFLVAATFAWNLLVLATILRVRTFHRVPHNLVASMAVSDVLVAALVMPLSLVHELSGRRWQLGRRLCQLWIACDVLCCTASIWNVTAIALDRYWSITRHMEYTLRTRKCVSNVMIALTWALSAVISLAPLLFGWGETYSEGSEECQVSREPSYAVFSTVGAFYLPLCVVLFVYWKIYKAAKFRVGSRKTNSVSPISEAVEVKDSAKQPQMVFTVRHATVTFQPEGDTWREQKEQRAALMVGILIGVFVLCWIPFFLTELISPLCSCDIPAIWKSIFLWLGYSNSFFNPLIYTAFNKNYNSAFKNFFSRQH

[27] = target: T4, σ2 receptor (Rattus norvegicus, UniProt Q5U3Y7); assay: PDSP off-target radioligand binding; details: read-out: Ki, σ2 receptor; NIMH PDSP
T4 sequence (Q5U3Y7 1-176): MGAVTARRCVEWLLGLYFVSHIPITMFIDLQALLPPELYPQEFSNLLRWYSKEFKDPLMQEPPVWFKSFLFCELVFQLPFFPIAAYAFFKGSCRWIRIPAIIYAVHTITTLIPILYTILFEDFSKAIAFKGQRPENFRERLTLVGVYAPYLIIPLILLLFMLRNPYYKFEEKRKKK

Sequence of CYP2C9 (P11712 whole entry): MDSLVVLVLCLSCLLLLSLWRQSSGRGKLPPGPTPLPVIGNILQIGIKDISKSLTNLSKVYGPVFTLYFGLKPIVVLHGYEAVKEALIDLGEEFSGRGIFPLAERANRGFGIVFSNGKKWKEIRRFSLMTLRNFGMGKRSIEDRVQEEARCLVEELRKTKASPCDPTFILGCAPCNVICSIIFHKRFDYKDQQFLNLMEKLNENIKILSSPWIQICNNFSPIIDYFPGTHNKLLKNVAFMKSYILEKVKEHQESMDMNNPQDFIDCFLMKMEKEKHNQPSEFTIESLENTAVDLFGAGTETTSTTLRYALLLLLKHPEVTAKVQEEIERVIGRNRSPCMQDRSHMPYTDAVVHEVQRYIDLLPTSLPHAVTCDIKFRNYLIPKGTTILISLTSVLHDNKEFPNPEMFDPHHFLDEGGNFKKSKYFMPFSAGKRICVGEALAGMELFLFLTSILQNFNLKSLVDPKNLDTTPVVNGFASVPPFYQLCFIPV

For `O=C(O)c1cc(-c2ccc([C@H]3C[C@H]4C[C@@H]3CN4)cc2)c2ccc(-c3ccc(C(F)(F)F)cc3)cc2c1` [2b, 4-(4-((1S,4S,5S)-2-Azabicyclo[2.2.1]heptan-5-yl)phenyl)-7-(4-(trifluoromethyl)phenyl)-2-naphthoic Acid], the IC50 [1] is given as > 30 µM, the bioavailability [2] is given as 43 %F and the IC50 [3] is given as > 30 µM. The IC50 [4] was > 30 µM, the IC50 [5] was > 30 µM and the IC50 [6] was > 30 µM. The IC50 [7] was > 30 µM, the “plasma stability (% remaining at 120 min)” value [8] was 82.8% and the “simulated intestinal fluid (% remaining at 120 min)” value [9] was 99.1%. For the same molecule, the “plasma stability (% remaining at 120 min)” value [10] was 100%, the “solubility, (μg/mL)” value [11] was 1.90 (pH 7.4)^d μg/mL and the Ki [12] was 0.00181 µM. For the same molecule, the “simulated gastric fluid (% remaining at 120 min)” value [13] was 100^a %.
In the case of `O=C(O)c1cc(-c2ccc(C3CCNCC3)cc2)c2ccc(-c3ccc(C(F)(F)F)cc3)cc2c1` [compound 1, 4-(4-(Piperidin-4-yl)phenyl)-7-(4-(trifluoromethyl)phenyl)-2-naphthoic Acid, reference compound], the oral bioavailability [14] is given as 5 % F, the IC50 [15] is given as 0.0022 µM and the “airway eosinophilia (eosinophils in BAL fluid)” value [16] is given as “reduce airway eosinophilia”. For the same molecule, the “lymphocytes in the BAL fluid” value [16] was “trend toward lower lymphocytes” and the “reversal of mechano-allodynia (paw withdrawal threshold)” value (“reversal of mechano-allodynia” below) ([17]; 10 μmol/kg, p.o. (oral gavage)) was “full reversal of mechano-allodynia; also recorded: reversed the mechano-allodynia”.
For `O=C(O)c1cc(-c2ccc([C@]3(O)[C@@H]4CNC[C@H]3C4)cc2)c2ccc(-c3ccc(C(F)(F)F)cc3)cc2c1` [compound 15, 4-(4-((1R,5S,6r)-6-Hydroxy-3-azabicyclo[3.1.1]heptan-6-yl)-phenyl)-7-(4-(trifluoromethyl)phenyl)-2-naphthoic Acid], the “ligand efficiency (LE)” value [18] was 0.311, the “mortality or morbidity / tolerability” value ([19]; male Wistar rats, 1, 3, and 10 mg/kg i.p. and 0.5 mg/kg i.v.) was “well tolerated” and the half-life ([19]; male, Wistar, rat, plasma, ip, 3 mg/kg) was 4.3 h. For the same molecule, the “protection against heart I/R injury” value [20] was “no protection against heart I/R injury”, the Maximal plasma concentration ([21]; 1 mg/kg) was 0.50 µM and the Maximal plasma concentration ([21]; 3 mg/kg) was 1.3 µM. For the same molecule, the Maximal plasma concentration ([21]; 10 mg/kg) was 4.0 µM, the “mP2Y14R affinity higher than reference antagonist 1” value [22] was 4.5 fold and the “airway eosinophilia (eosinophils in BAL fluid)” value [16] was “demonstrated significant protection”. For the same molecule, the “lymphocytes in the BAL fluid” value [16] was “trend toward lower lymphocytes”, the “reversal of mechano-allodynia” value ([17]; 10 μmol/kg, p.o. (oral gavage)) was “nearly complete protection at 1 h; also recorded: reversed the mechano-allodynia” and the “reversal of mechano-allodynia” value ([17]; i.p. injection) was “full reversal of mechano-allodynia within 0.5 h”. For the same molecule, the “duration of the protection” value ([17]; oral gavage, 10 μmol/kg, 1 and 15 in the same CCI experiment) was “longer than protection by 1”.
Work on “Mixture of 4-(4-(2,3,6,7-Tetrahydro-1H-azepin-4-yl)phenyl)-7-(4-(trifluoromethyl)phenyl)-2-naphthoic Acid and 4-(4-(2,5,6,7-Tetra-hydro-1H-azepin-4-yl)phenyl)-7-(4-(trifluoromethyl)phenyl)-2-naphthoic Acid [compound 17]” yielded a Ki [18] of 0.00692 µM, an IC50 ([18]; read-out: IC50 (nM), affinity at hP2Y14R, whole-cell fluorescent binding, tracer 52 (20 nM), hP2Y14R-CHO cells, n = 3–4 unless noted) of 11.9 ± 3.6 nM and a Ki [23] of 0.84 µM. The Ki [24] was 4.1 µM, the “Log D7.4” value [25] was 2.2±0.0 and the Ki [26] was 4 µM. For the same molecule, the Ki [27] was 3.9 µM.
